The source made the active and inactive calls. The rule behind the calls is not given here. Where a SMILES comes first, the peptide text is derived from it.
Key:
[1] = target: T1, Toll-like receptor 4 (Rattus norvegicus) (UniProt Q9QX05); experiment: Inhibition of TLR4 in Sprague-Dawley rat cardiomyocytes assessed as reduction in hypoxia-induced LDH release preincubated for 1 hr followed by hypoxia for 3 hrs by NADH detection based colorimetric analysis; type: cell-based
T1 sequence (whole entry): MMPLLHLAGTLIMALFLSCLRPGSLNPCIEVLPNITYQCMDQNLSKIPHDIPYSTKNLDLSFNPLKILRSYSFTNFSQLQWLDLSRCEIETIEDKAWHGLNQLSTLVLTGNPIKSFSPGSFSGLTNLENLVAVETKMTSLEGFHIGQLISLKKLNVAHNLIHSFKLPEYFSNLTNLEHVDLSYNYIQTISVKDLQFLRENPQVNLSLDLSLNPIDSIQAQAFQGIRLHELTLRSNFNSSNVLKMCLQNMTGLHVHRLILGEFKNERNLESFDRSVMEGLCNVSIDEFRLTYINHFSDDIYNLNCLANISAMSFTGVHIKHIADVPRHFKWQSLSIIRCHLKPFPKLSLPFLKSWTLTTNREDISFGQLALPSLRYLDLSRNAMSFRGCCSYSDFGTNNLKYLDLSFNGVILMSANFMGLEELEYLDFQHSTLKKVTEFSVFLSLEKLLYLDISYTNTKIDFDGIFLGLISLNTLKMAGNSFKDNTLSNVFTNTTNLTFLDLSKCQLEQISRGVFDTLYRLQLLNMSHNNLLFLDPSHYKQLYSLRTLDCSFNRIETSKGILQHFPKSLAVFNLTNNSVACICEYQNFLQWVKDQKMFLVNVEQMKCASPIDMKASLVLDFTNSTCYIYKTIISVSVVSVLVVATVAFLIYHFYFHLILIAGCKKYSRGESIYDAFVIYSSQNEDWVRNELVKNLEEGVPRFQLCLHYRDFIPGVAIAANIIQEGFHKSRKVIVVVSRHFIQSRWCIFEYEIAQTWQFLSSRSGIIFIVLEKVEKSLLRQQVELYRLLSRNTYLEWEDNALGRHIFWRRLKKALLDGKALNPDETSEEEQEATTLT

[2] = target: T1, Toll-like receptor 4 (Rattus norvegicus); experiment: Inhibition of TLR4 in Sprague-Dawley rat cardiomyocytes assessed as reduction in hypoxia-induced creatine kinase levels preincubated for 1 hr followed by hypoxia for 3 hrs by NADP reduction based colorimetric analysis; type: cell-based
[3] = target: T1, Toll-like receptor 4 (Rattus norvegicus); experiment: Inhibition of TLR4 in Sprague-Dawley rat cardiomyocytes assessed as reduction in hypoxia-induced LDH release at 10 to 20 uM preincubated for 1 hr followed by hypoxia for 3 hrs by NADH detection based colorimetric analysis; type: cell-based
[4] = target: T1, Toll-like receptor 4 (Rattus norvegicus); experiment: Inhibition of TLR4 in Sprague Dawley rat cardiomyocytes assessed as reduction in LPS induced LDH levels by measuring NADH levels at 10 to 20 uM preincubated for 1 hr followed by induction of hypoxia measured after 5 hrs by colorimetric analysis; type: cell-based
[5] = target: T1, Toll-like receptor 4 (Rattus norvegicus); experiment: Inhibition of TLR4 in Sprague-Dawley rat cardiomyocytes assessed as reduction in LPS-induced LDH release at 10 to 20 uM preincubated for 1 hr followed by LPS stimulation for 5 hrs by NADH detection based colorimetric analysis; type: cell-based
[6] = target: T1, Toll-like receptor 4 (Rattus norvegicus); experiment: Inhibition of TLR4 in Sprague-Dawley rat cardiomyocytes assessed as reduction in hypoxia-induced creatine kinase levels at 10 to 20 uM preincubated for 1 hr followed by hypoxia for 3 hrs by NADP reduction based colorimetric analysis; type: cell-based
Macrophage [7] = experiment: Antiinflammatory activity in human macrophages assessed reduction in LPS-induced TLR4 expression at 10 uM pretreated for 30 mins followed by LPS stimulation for 4 hrs by FACS analysis; type: functional, cell-based
[8] = target: T1, Toll-like receptor 4 (Rattus norvegicus); experiment: Inhibition of TLR4 in Sprague-Dawley rat cardiomyocytes assessed as reduction in LPS-induced creatine kinase levels at 10 to 20 uM preincubated for 1 hr followed by LPS stimulation for 5 hrs by NADH detection based colorimetric analysis; type: cell-based
Macrophage [9] = experiment: Antiinflammatory activity in human macrophages assessed reduction in TLR4 expression at 10 uM after 4 hrs by FACS analysis; type: functional, cell-based
[10] = target: T1, Toll-like receptor 4 (Rattus norvegicus); experiment: Inhibition of TLR4 in Sprague-Dawley rat cardiomyocytes assessed as reduction in hypoxia-induced LDH release at 1 uM preincubated for 1 hr followed by hypoxia for 3 hrs by NADH detection based colorimetric analysis; type: cell-based
[11] = target: T1, Toll-like receptor 4 (Rattus norvegicus); experiment: Inhibition of TLR4 in Sprague-Dawley rat cardiomyocytes assessed as reduction in hypoxia-induced creatine kinase levels at 1 uM preincubated for 1 hr followed by hypoxia for 3 hrs by NADP reduction based colorimetric analysis; type: cell-based
[12] = target: T1, Toll-like receptor 4 (Rattus norvegicus); experiment: Inhibition of TLR4 in Sprague-Dawley rat cardiomyocytes assessed as reduction in hypoxia-induced LDH release at 20 uM preincubated for 1 hr followed by hypoxia for 3 hrs by NADH detection based colorimetric analysis; type: cell-based
[13] = target: T1, Toll-like receptor 4 (Rattus norvegicus); experiment: Inhibition of TLR4 in Sprague-Dawley rat cardiomyocytes assessed as reduction in hypoxia-induced creatine kinase levels at 20 uM preincubated for 1 hr followed by hypoxia for 3 hrs by NADP reduction based colorimetric analysis; type: cell-based
[14] = target: T1, Toll-like receptor 4 (Rattus norvegicus); experiment: Inhibition of TLR4 in Sprague-Dawley rat cardiomyocytes assessed as reduction in hypoxia-induced creatine kinase levels at 10 uM preincubated for 1 hr followed by hypoxia for 3 hrs by NADP reduction based colorimetric analysis; type: cell-based
[15] = target: T1, Toll-like receptor 4 (Rattus norvegicus); experiment: Inhibition of TLR4 in Sprague-Dawley rat cardiomyocytes assessed as reduction in hypoxia-induced LDH release at 10 uM preincubated for 1 hr followed by hypoxia for 3 hrs by NADH detection based colorimetric analysis; type: cell-based
[16] = target: T1, Toll-like receptor 4 (Rattus norvegicus); experiment: Inhibition of TLR4 in Sprague-Dawley rat cardiomyocytes assessed as reduction in hypoxia-induced IL-1beta mRNA expression at 20 uM preincubated for 1 hr followed by hypoxia for 3 hrs by RT-qPCR analysis; type: cell-based
[17] = Reduction in hypoxia-induced TLR4 mRNA expression in Sprague-Dawley rat cardiomyocytes at 20 uM preincubated for 1 hr followed by hypoxia for 3 hrs by RT-qPCR analysis relative to untreated control; type: functional, Cardiac muscle cell

Compound	inhibition [1]	inhibition [2]	other results
Cc1cn(Cc2ccccc2)c(=O)nc1NCCCN(C)C	inactive	inactive	
CSCC[C@H](NC(=O)[C@H](CCC(=O)O)NC(C)=O)C(=O)N1CCC[C@H]1C(=O)NC(CS)C(N)=O (single isomer, unassigned)	inactive	inactive	
CCOc1nc(=O)n(Cc2ccc([N+](=O)[O-])cc2)cc1C	inactive	inactive	
Cc1cn(Cc2ccccc2)c(=O)nc1NCc1ccccc1	inactive	inactive	
CCOc1ncc(C)c(OCC)n1	inactive	inactive	
CC(=O)N[C@H](C(=O)N[C@@H](Cc1ccccc1)C(=O)N[C@@H](C)C(=O)N[C@@H](CCC(=O)O)C(N)=O)C(C)C (Ac-VFAE-NH2)	Dose-dependent effect	Dose-dependent effect	inhibition [3]: Active; inhibition [4]: Active; inhibition [5]: Active; inhibition [6]: Active; Activity (Macrophage [7]): Active; inhibition [8]: Active; Activity (Macrophage [9]): Active
CC[C@H](C)[C@H](NC(C)=O)C(=O)N[C@H](C(=O)N[C@@H](Cc1ccccc1)C(=O)N[C@@H](C)C(N)=O)C(C)C (Ac-IVFA-NH2)	Dose-dependent effect	Dose-dependent effect	inhibition [4]: Active; inhibition [5]: Active; Activity (Macrophage [7]): Active; inhibition [8]: Active; inhibition [10]: 70%; inhibition [11]: 77%; Activity (Macrophage [9]): Active
CCCCCCCCNc1nc(=O)n(Cc2ccc(C(F)(F)F)cc2)cc1C	inactive	inactive	
H-IVFAEMPCG-OH			fold change (FC) [12]: 1.8; fold change (FC) [13]: 5.5; Activity (Macrophage [7]): Active; inhibition [14]: inactive; inhibition [15]: inactive; Activity (Macrophage [9]): Active
CC[C@H](C)[C@H](NC(C)=O)C(=O)N[C@@H](Cc1ccccc1)C(=O)N[C@@H](C)C(N)=O (Ac-Ile-Phe-Ala-NH2)	inactive	inactive	
CC(=O)N[C@@H](Cc1ccccc1)C(=O)N[C@@H](C)C(=O)N[C@@H](CCC(=O)O)C(N)=O (Ac-Phe-Ala-Glu-NH2)	inactive	inactive	
CSCC[C@H](NC(C)=O)C(=O)N1CCC[C@H]1C(=O)NC(CS)C(=O)NCC(N)=O (single isomer, unassigned)	inactive	inactive	
CCOc1nc(=O)n(Cc2ccccc2)cc1C	inactive	inactive	
CC(=O)N[C@H](C(=O)N[C@@H](Cc1ccccc1)C(=O)N[C@@H](C)C(N)=O)C(C)C (Ac-Val-Phe-Ala-NH2)	inactive	inactive	
CSCC[C@H](NC(=O)[C@H](CCC(=O)O)NC(=O)[C@H](C)NC(=O)[C@H](Cc1ccccc1)NC(C)=O)C(N)=O (Ac-FAEM-NH2)	Dose-dependent effect	Dose-dependent effect	inhibition [3]: Active; inhibition [6]: Active
CCC(C)Nc1nc(=O)n(Cc2ccccc2)cc1C (stereo not drawn)	inactive	inactive	
CCOc1nc(=O)n(Cc2ccc(C(F)(F)F)cc2)cc1C	inactive	inactive	
CSCC[C@H](NC(=O)[C@H](CCC(=O)O)NC(=O)[C@H](C)NC(C)=O)C(=O)N1CCC[C@H]1C(N)=O (Ac-AEMP-NH2)	Dose-dependent effect	Dose-dependent effect	
CCCCCCCCCCNc1nc(=O)n(Cc2ccccc2)cc1C	inactive	inactive	
Cc1cn(Cc2ccccc2)c(=O)nc1NC1CCCC1	inactive	inactive	
CCCCCCCCNc1nc(=O)n(Cc2ccc([N+](=O)[O-])cc2)cc1C	inactive	inactive	
Cc1cn(Cc2ccccc2)c(=O)nc1NCCC(C)C			fold change (FC) [16]: 1.4; inhibition [14]: Active; fold change (FC) [17]: 1.5; inhibition [15]: Active
CCOc1nc(=O)n(Cc2ccc3ccccc3c2)cc1C	inactive	inactive	

Reference: ChEMBL document CHEMBL4382262, “Structurally Simple, Readily Available Peptidomimetic 1-Benzyl-5-methyl-4-( n-octylamino)pyrimidin-2(1 H)-one Exhibited Efficient Cardioprotection in a Myocardial Ischemia (MI) Mouse Model” (J Med Chem, 2018)
